Target: T1, SMYD3 (Homo sapiens, UniProt Q9H7B4)
T1 sequence (Q9H7B4 1-428): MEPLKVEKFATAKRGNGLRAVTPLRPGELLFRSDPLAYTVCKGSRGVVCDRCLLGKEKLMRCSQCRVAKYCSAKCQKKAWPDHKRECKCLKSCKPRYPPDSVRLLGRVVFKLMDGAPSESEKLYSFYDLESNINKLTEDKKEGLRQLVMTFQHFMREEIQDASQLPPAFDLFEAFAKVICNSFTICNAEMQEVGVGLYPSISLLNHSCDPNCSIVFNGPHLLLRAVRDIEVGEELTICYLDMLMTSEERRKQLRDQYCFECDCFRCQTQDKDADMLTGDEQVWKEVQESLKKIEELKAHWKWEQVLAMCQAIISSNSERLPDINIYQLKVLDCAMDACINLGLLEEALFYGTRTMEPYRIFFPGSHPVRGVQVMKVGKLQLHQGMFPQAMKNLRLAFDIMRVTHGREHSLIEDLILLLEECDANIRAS
Assay: SMYD3 biochemical assay (MTase-Glo, MAP3K2 peptide substrate)
Conditions: Table 3; MTase assay, MAP3K2 peptide substrate; read-out: IC50
In short: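 Luminescent readout of SAH production (coupled SAH→ATP conversion, MTase-Glo) after SMYD3 reacted 30 min at room temperature with 1.0 µM SAM and 10 µM MAP3K2 peptide, both final. Non-linear regression gave IC50 values.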

Structure (SMILES)	IC50 [nM]
CCCOC(=O)N1CCN(C(=O)c2ccc3c(Cl)c4c(nc3c2)CC(c2ccnc(C(N)=O)c2)CC4)C[C@H]1C (stereo partly drawn) [A141, Propyl (2R)-4-(6-(2-carbamoylpyridin-4-yl)-9-chloro-5,6,7,8-tetrahydroacridine-3-carbonyl)-2-methylpiperazine-1-carboxylate]	230
CCCOC(=O)N1CCN(C(=O)c2ccc3c(Cl)cc(-c4ccnc(OC)c4)nc3c2)C[C@H]1C [B131, Propyl (R)-4-(4-chloro-2-(2-methoxypyridin-4-yl)quinoline-7-carbonyl)-2-methylpiperazine-1-carboxylate]	360
CCCOC(=O)N1CCN(C(=O)c2ccc3c(Cl)c4c(nc3c2)CCCC4)C(C(=O)OC)C1 (stereo not drawn) [A051, 3-Methyl 1-propyl 4-(9-chloro-5,6,7,8-tetrahydroacridine-3-carbonyl)piperazine-1,3-dicarboxylate]	650
CCCOC(=O)N1CCN(C(=O)c2ccc3c(Cl)cc(-c4ccc(C(=O)NC)c(F)c4)nc3c2)CC1 [B204, Propyl 4-(4-chloro-2-(3-fluoro-4-(methylcarbamoyl)phenyl)quinoline-7-carbonyl)piperazine-1-carboxylate]	1010
CCCOC(=O)N1CCN(C(=O)c2ccc3c(Cl)c4c(nc3c2)CCCC4)CC1CO (stereo not drawn) [A032, Propyl 4-(9-chloro-5,6,7,8-tetrahydroacridine-3-carbonyl)-2-(hydroxymethyl)piperazine-1-carboxylate]	1200
CCCOC(=O)N1CCN(C(=O)c2ccc3c(Cl)c(C)c(-c4ccc(OC)cc4)nc3c2)C[C@@H]1C [B034, Propyl (S)-4-(4-chloro-2-(4-methoxyphenyl)-3-methylquinoline-7-carbonyl)-2-methylpiperazine-1-carboxylate]	120
CCCOC(=O)N1CCN(C(=O)c2ccc3c(Cl)c4c(nc3c2)CCCC4)C2(CC2)C1 [A037, Propyl 4-(9-chloro-5,6,7,8-tetrahydroacridine-3-carbonyl)-4,7-diazaspiro[2.5]octane-7-carboxylate]	8400
CCCOC(=O)N1CCN(C(=O)c2ccc3c(Cl)c4c(nc3c2)CC(c2cnn(C)c2)CC4)CC1 (stereo not drawn) [A151, Propyl 4-(9-chloro-6-(1-methyl-1H-pyrazol-4-yl)-5,6,7,8-tetrahydroacridine-3-carbonyl)piperazine-1-carboxylate]	46
CN(C)Cc1cc(-c2cc(Cl)c3ccc(C(=O)N4CCN(C(=O)c5cn(C6CC6)nn5)CC4)cc3n2)ccc1F [E020, (4-Chloro-2-(3-((dimethylamino)methyl)-4-fluorophenyl)quinolin-7-yl)(4-(1-cyclopropyl-1H-1,2,3-triazole-4-carbonyl)piperazin-1-yl)methanone]	58
CCCOC(=O)N1CCN(C(=O)c2ccc3c(Cl)cc(-c4ccc5[nH]cc(C)c5c4)nc3c2)CC1 [B211, Propyl 4-(4-chloro-2-(3-methyl-1H-indol-5-yl)quinoline-7-carbonyl)piperazine-1-carboxylate]	1010
CCCOC(=O)N1CCN(C(=O)c2ccc3c(Cl)cc(-c4ccc(-c5cn[nH]c5)cc4)nc3c2)CC1 [B136, Propyl 4-(2-(4-(1H-pyrazol-4-yl)phenyl)-4-chloroquinoline-7-carbonyl)piperazine-1-carboxylate]	38
CCCOC(=O)N1CCN(C(=O)c2ccc3c(Cl)cc(-c4ccc(F)c(C)c4)nc3c2)CC1 [B068, Propyl 4-(4-chloro-2-(4-fluoro-3-methylphenyl)quinoline-7-carbonyl)piperazine-1-carboxylate]	1300
CCCOC(=O)N1CCN(C(=O)c2ccc3c(Cl)c4c(nc3c2)CCCC4)C(CC(=O)NC)C1 (stereo not drawn) [A072, propyl 4-(9-chloro-5,6,7,8-tetrahydroacridine-3-carbonyl)-3-(2-(methylamino)-2-oxoethyl)piperazine-1-carboxylate]	4300
CCCOC(=O)N1CCN(C(=O)c2ccc3c(Cl)cc(-c4cc(F)c(O)c(F)c4)nc3c2)CC1 [B201, Propyl 4-(4-chloro-2-(3,5-difluoro-4-hydroxyphenyl)quinoline-7-carbonyl)piperazine-1-carboxylate]	180
CCCOC(=O)N1CCN(C(=O)c2ccc3c(Cl)cc(-c4cc(C)c5[nH]ncc5c4)nc3c2)CC1 [B186, Propyl 4-(4-chloro-2-(7-methyl-1H-indazol-5-yl)quinoline-7-carbonyl)piperazine-1-carboxylate]	140
CCCOC(=O)N1CCN(C(=O)c2ccc3c(Cl)cc(-c4ccc(C(=O)N(C)C)cc4)nc3c2)C[C@H]1C [B082, Propyl (R)-4-(4-chloro-2-(4-(dimethylcarbamoyl)phenyl)quinoline-7-carbonyl)-2-methylpiperazine-1-carboxylate]	690
CCCOC(=O)N1CCN(C(=O)c2ccc3c(Cl)c4c(nc3c2)CC(Cc2ccccn2)CC4)CC1 (stereo not drawn) [A103, Propyl 4-(9-chloro-6-(pyridin-2-ylmethyl)-5,6,7,8-tetrahydroacridine-3-carbonyl)piperazine-1-carboxylate]	390

Structure (SMILES)	IC50 [nM]
CCCOC(=O)N1CC2CC(C1)N2C(=O)c1ccc2c(Cl)c3c(nc2c1)CCCC3 [A014, Propyl 6-(9-chloro-5,6,7,8-tetrahydroacridine-3-carbonyl)-3,6-diazabicyclo[3.1.1]heptane-3-carboxylate]	1000
CCCOC(=O)N1CCN(C(=O)c2ccc3c(Cl)cc(-c4ccc(S(=O)(=O)N(C)C)cc4)nc3c2)C[C@H]1C [B094, Propyl (R)-4-(4-chloro-2-(4-(N,N-dimethylsulfamoyl)phenyl)quinoline-7-carbonyl)-2-methylpiperazine-1-carboxylate]	610
CCCOC(=O)N1CCN(C(=O)c2ccc3c(Cl)c4c(nc3c2)CCNC4)CC1 [C008, Propyl 4-(10-chloro-1,2,3,4-tetrahydrobenzo[b][1,6]naphthyridine-7-carbonyl)piperazine-1-carboxylate]	4600
CCCOC(=O)N1CCN(C(=O)c2ccc3c(Cl)cc(-c4cc(F)cc(F)c4)nc3c2)CC1 [B048, Propyl 4-(4-chloro-2-(3,5-difluorophenyl)quinoline-7-carbonyl)piperazine-1-carboxylate]	3000
CCCOC(=O)N1CCN(C(=O)c2ccc3c(Cl)c4c(nc3c2)CC(c2ccnc(C#N)c2)CC4)CC1 (stereo not drawn) [A138, Propyl 4-(9-chloro-6-(2-cyanopyridin-4-yl)-5,6,7,8-tetrahydroacridine-3-carbonyl)piperazine-1-carboxylate]	680
CCCOC(=O)N1CCN(C(=O)c2ccc3c(Cl)c4c(nc3c2)CC(c2ccc(F)cn2)CC4)[C@@H](C)C1 (stereo partly drawn) [A095, Propyl (3S)-4-(9-chloro-6-(5-fluoropyridin-2-yl)-5,6,7,8-tetrahydroacridine-3-carbonyl)-3-methylpiperazine-1-carboxylate]	110
CCCOC(=O)N1CCN(C(=O)c2ccc3c(Cl)c4c(nc3c2)CC(c2ncccc2F)CC4)C[C@@H]1C (stereo partly drawn) [A124, Propyl (2S)-4-(9-chloro-6-(3-fluoropyridin-2-yl)-5,6,7,8-tetrahydroacridine-3-carbonyl)-2-methylpiperazine-1-carboxylate]	340
CCCOC(=O)N1CCN(C(=O)c2ccc3c(Cl)cc(-c4cc(F)c(O)c(F)c4)nc3c2)[C@@H](C)C1 [B220, Propyl (S)-4-(4-chloro-2-(3,5-difluoro-4-hydroxyphenyl)quinoline-7-carbonyl)-3-methylpiperazine-1-carboxylate]	350
CCCOC(=O)N1CCN(C(=O)c2ccc3c(Cl)cc(-c4ccc5nc(C)sc5c4)nc3c2)CC1 [B208, Propyl 4-(4-chloro-2-(2-methylbenzo[d]thiazol-6-yl)quinoline-7-carbonyl)piperazine-1-carboxylate]	380
CCCOC(=O)N1CCN(C(=O)c2ccc3c(Cl)c(C)c(-c4ccc(C)cc4)nc3c2)[C@H](C)C1 [B023, Propyl (R)-4-(4-chloro-3-methyl-2-(p-tolyl)quinoline-7-carbonyl)-3-methylpiperazine-1-carboxylate]	690
CCCOC(=O)N1CCN(C(=O)c2ccc3c(Cl)cc(-c4cc[nH]n4)nc3c2)CC1 [B138, Propyl 4-(4-chloro-2-(1H-pyrazol-5-yl)quinoline-7-carbonyl)piperazine-1-carboxylate]	830
CCCOC(=O)N1CCN(C(=O)c2ccc3c(Cl)cc(-c4cccc(C(N)=O)c4)nc3c2)CC1 [B033, Propyl 4-(2-(3-carbamoylphenyl)-4-chloroquinoline-7-carbonyl)piperazine-1-carboxylate]	210
CCCOC(=O)N1CCN(C(=O)c2ccc3c(Cl)cc(-c4ccc(S(N)(=O)=O)cc4)nc3c2)CC1 [B103, Propyl 4-(4-chloro-2-(4-sulfamoylphenyl)quinoline-7-carbonyl)piperazine-1-carboxylate]	130
C=CCOC(=O)N1CCN(C(=O)c2ccc3c(Cl)c4c(nc3c2)CCC4)CC1 [C002, Allyl 4-(9-chloro-2,3-dihydro-1H-cyclopenta[b]quinoline-6-carbonyl)piperazine-1-carboxylate]	10000
C#Cc1ccc(-c2cc(Cl)c3ccc(C(=O)N4CCN(C(=O)OCCC)CC4)cc3n2)cc1 [B057, Propyl 4-(4-chloro-2-(4-ethynylphenyl)quinoline-7-carbonyl)piperazine-1-carboxylate]	930
CCCOC(=O)N1CCN(C(=O)c2ccc3c(Cl)cc(Nc4cccnc4)nc3c2)CC1 [B042, Propyl 4-(4-chloro-2-(pyridin-3-ylamino)quinoline-7-carbonyl)piperazine-1-carboxylate]	3100
